According to patent publication US9796671B2, “Aurora kinase inhibitors” (REGENTS OF THE UNIVERSITY OF MINNESOTA, priority 2012, dated 2017):

Assays:
Aurora B = Aurora B (Homo sapiens, UniProt Q96GD4); test: Aurora B in vitro kinase assay (histone H3 Ser10 phosphorylation, Western blot); type: biochemical
Method: (§1) Proteins are resolved by SDS-PAGE and transferred onto polyvinylidene difluoride membranes (Millipore, Mass.), which are blocked with nonfat milk and hybridized with specific primary antibodies. The protein bands are visualized using an enhanced chemiluminescence reagent (GE Healthcare, Pittsburgh, Pa.) after hybridization with a horseradish peroxidase-conjugated secondary antibody.
Reactions are carried out in 1× kinase buffer (25 mM Tris-HCl pH 7.5, 5 mM beta-glycerophosphate, 2 mM dithiothreitol (DTT), 0.1 mM Na3VO4, 10 mM MgCl2 and 5 mM MnCl2) containing 100 μM ATP at 30° C. for 30 minutes. Reactions are stopped and proteins detected by Western blotting.
An in vitro kinase assay was used to determine whether Compound 1 could inhibit Aurora B kinase activity using recombinant Aurora B protein and various concentrations of Compound 1. […] The effect of Compound 1 on Aurora A kinase activity using an in vitro kinase assay was also examined.

A549 cells = test: Cell cycle analysis (flow cytometry); type: cell-based, human; conditions: A549, 48 hours
Method: (§2) Cells are plated in 60-mm plates and treated or not treated with Compound 1 for the indicated time. At each time point, cells are fixed in 70% ethanol and stored at −20° C. for 24 h. After staining, the cell cycle distribution or apoptosis is determined using a BD FACSCalibur Flow Cytometer (BD Biosciences, San Jose, Calif.). Aurora B inhibition leads to failure in cytokinesis and abnormal exit from mitosis, which could result in polyploidy cells, cell cycle arrest, and ultimately apoptosis. The ability to induce polyploidy cells was further examined in A549 cells treated or not treated with Compound 1. […] In addition, Compound 1 treatment for 48 hours caused an increase in the number of A549 and H520 cells occupying the G2/M phase. Moreover, exposure of these cells to Compound 1 for 72 hours induced apoptosis as measured by Annexin V/PI staining. For example, exposure to 5 μM Compound 1 induced 48% or 82% apoptosis in A549 cells and H520 cells, compared to 8% or 38% in untreated control cells, respectively.

H520 cells = test: Cell cycle analysis (flow cytometry); type: cell-based, human; conditions: H520, 48 hours
Method: as §2

[1] = test system: phosphorylation of Akt (Ser473), GSK3β (Ser9), p70S6K (Thr389) and S6 (Ser235,236) in H520 cells; test: Western blot of Akt and downstream signaling in cells; type: cell-based, human
Source text: as §1
(§3) According to the kinase profiler assay results, Akt2 also might be a potential target of Compound 1. An Akt1 and Akt2 in vitro kinase assays was performed.

[2] = test system: phosphorylation of Akt (Ser473), GSK3β (Ser9), p70S6K (Thr389) and S6 (Ser235,236) in A549 cells; test: as above; type: cell-based, human
Source text: as §1, §3

[3] = test system: A549 lung cancer cells xenograft; test: Xenograft mouse model, oral gavage (Example 7); type: in vivo; conditions: 40 mg/kg oral gavage 5 times a week
Source text: Athymic nude mice (6 week old nu/nu female mice, Harlan Laboratory, Minneapolis, Minn.) were inoculated in the right flank with A549 lung cancer cells (3*10^6 cells/mouse). Mice were maintained under “specific pathogen-free” conditions based on the guidelines established by the University of Minnesota Institutional Animal Care and Use Committee. Tumors were allowed to grow to an average of ˜53.5±34.5 mm^3 and then mice were divided into 2 equal groups with a similar average tumor volume (group 1; n=15), vehicle only; (group 2, […]), compound 1 at 40 mg/kg. Treatment with vehicle or compound 1 was initiated on Day 13 after inoculation of cells and continued to Day 80 (˜9 wks) and was administered by oral gavage 5 times a week. Tumor volume was measured once a week and body weight was measured once a week. Compound 1 was prepared in 2.5% DMSO/5% PEG 400/5% Tween-80 in 1×PBS and sonicated for ˜20 minutes. […] Data are shown as means±S.E (FIG. 1).

Aurora B, sequence (Q96GD4 whole entry): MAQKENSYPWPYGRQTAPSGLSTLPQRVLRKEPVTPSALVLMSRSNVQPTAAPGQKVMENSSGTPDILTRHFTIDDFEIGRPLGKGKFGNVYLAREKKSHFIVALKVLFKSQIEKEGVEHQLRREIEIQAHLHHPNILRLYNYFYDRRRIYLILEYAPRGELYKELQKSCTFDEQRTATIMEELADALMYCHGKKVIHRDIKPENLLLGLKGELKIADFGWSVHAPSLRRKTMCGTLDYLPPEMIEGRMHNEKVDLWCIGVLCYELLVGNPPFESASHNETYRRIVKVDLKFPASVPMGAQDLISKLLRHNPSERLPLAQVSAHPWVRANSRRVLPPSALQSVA

`O=C(/C=C/c1ccc2c(c1)OCO2)/C=C1/C(=O)Nc2ccccc21` [Compound 1] was tested, and the inhibition at 0.05 µM (Aurora B; 0.05 μM) was 22%, the inhibition at 0.1 µM (Aurora B; 0.1 μM) was 50% and the “histone H3 (Ser10) phosphorylation band by Aurora B” value (Aurora B; 1 μM) was “only a weak histone H (Ser10) band”. For the same molecule, the “concentration required for Aurora B inhibition” value (Aurora B; discussion statement) was ≤ 1 µM, the “number of cells occupying the G2/M phase” value (A549 cells) was “increase” and the “number of cells occupying the G2/M phase” value (H520 cells) was “increase”. The “effect on the phosphorylation of Akt or its downstream signaling molecules” value [1] was “no effect”, the “effect on the phosphorylation of Akt or its downstream signaling molecules” value [2] was “no effect” and the “final tumor volume (mean±S.E.)” value ([3]; Day 13 to Day 80, vehicle 1004±140.1, in mm³ (unit assumed)) was 403.2±50.0. For the same molecule, the toxicity in mice ([3]; ~9 wks) was “No toxicity”.
